# Reference: patent US7560586B2, “Acid and ester compounds and methods of using the same” (SmithKline Beecham Corporation, priority 2002, dated 2009)
# What was measured:
# [1] = target: T1, human LXRβ ligand binding domain (Homo sapiens, UniProt P55055); test: Ligand Sensing Assay (LiSA) for LXRβ Agonist Activity (recruitment of SRC1-derived peptide, HTRF); type: biochemical; conditions: 1 μM; over a background reading of 10000 fluorescence units
# T1 construct: LXRβLBD(185-461) is eluted with a gradient from 50 to 500 mM imidazole; made in house; host or cells: E. coli BL21(DE3), vector pRSETa
# T1 sequence (P55055 184-460 limits assumed): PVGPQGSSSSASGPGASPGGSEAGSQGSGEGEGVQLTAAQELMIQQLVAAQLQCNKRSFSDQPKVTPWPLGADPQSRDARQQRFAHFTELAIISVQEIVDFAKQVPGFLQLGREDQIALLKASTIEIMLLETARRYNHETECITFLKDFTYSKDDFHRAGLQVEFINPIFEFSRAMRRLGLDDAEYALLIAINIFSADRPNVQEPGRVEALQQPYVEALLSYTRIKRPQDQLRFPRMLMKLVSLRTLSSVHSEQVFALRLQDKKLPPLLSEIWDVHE
# T1 sequence (Q15788 676-700 partner limits assumed): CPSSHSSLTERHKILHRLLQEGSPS
# From the text: Test Method 1: Ligand Sensing Assay (LiSA) for LXRβ Agonist Activity
# This assay measures the recruitment of a peptide derived from the coactivator protein, SRC1, to the agonist-bound LXRβ. Peptides derived from other nuclear receptor cofactors may be similarly prepared and assayed.
# To generate the human LXRβ ligand binding domain suitable for LiSA, a modified polyhistidine tag (MKKGHHHHHHG) (SEQ ID No. 1) was fused in frame to the human LXRβ ligand binding domain (amino acids 185461 of Genbank accession number U07132) and subcloned into the expression vector pRSETa (Invitrogen) under the control of an IPTG inducible T7 promoter. The human LXRβ ligand binding domain was expressed in E. coli strain BL21(DE3). Ten-liter fermentation batches were grown in Rich PO4 media with 0.1 mg/mL Ampicillin at 25° C. for 12 hours, cooled to 9° C. and held at that temperature for 36 hours to a density of OD600=14. At this cell density, 0.25 mM IPTG was added and induction proceeded for 24 hours at 9° C., to a final OD600=16. […]
# Typically 25-50 g of cell paste is resuspended in 250-500 mL TBS, pH 8.0 (25 mM Tris, 150 mM NaCl). […] After washing to baseline absorbance with equilibration buffer, the column is washed with approximately one column volume of TBS pH […] containing 95 mM imidazole. […] After washing to baseline absorbance with the dilution buffer the protein is eluted with a gradient from 50-500 mM NaCl. […]
# [2] = target: T2, LXRα ligand binding domain (Homo sapiens, UniProt Q13133); test: Ligand Sensing Assay for LXRα Agonist Activity; type: biochemical; conditions: 1 μM; over a background reading of 10000 fluorescence units
# T2 construct: his tag; made in house
# T2 sequence (Q13133 183-447): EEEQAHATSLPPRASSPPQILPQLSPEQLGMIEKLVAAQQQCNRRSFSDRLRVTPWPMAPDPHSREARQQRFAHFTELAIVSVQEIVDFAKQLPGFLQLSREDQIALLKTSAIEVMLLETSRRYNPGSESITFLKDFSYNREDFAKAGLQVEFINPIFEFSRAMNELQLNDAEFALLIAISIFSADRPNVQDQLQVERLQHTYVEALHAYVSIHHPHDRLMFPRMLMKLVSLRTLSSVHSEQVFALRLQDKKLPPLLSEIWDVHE
# T2 sequence (Q15788 676-700 partner): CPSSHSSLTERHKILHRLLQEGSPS
# Method: Test Method 2: Ligand Sensing Assay for LXRα Agonist Activity
# The assay for LXRα was run according to the procedures of Test Method 1, above using his-tagged LXRα ligand binding domain (amino acids 183447 of Genbank accession number U22662, with the 14th amino acid corrected to A from R). In this assay 1 μM 24(S), 25-epoxycholesterol gave a reading of 20000 fluorescence units over a background reading of 10000 fluorescence units.
structure (smiles),measurement,setting,value
"C[C@H](CC[C@@H]1OC1(C)C)[C@H]1CC[C@H]2[C@@H]3CC=C4C[C@@H](O)CC[C@]4(C)[C@H]3CC[C@]12C [24(S), 25-epoxycholesterol]",reading,[1],20000 fluorescence units
same,reading,[2],20000 fluorescence units
